Converted amounts (≈) assume the structure as drawn. Where two headings read alike, the source gives them in different places.
Tests used:
[1] = test system: eighty de-identified Enterobacteriaceae clinical isolates; assay: organism not typed; assay type: cell-based; settings: for Non-susceptible strains (%) / Non-susceptible strains n: eighty clinical isolates, reference microdilution, CLSI criteria, EUCAST for colistin
Procedure: K. pneumonia BIDMC12A is a previously described, carbapenem resistant clinical isolate (14) expressing a KPC-3 carbapenemase. The eighty de-identified Enterobacteriaceae clinical isolates (Table 1) used for verification studies were collected at our institution under IRB-approved protocols. All strains were minimally passaged and stored at -80° C. prior to use in this study.
Verification study: Digital dispensing and reference method testing were performed in parallel using the same inoculum preparation. Microdilution reference panels were pre-prepared and stored at -80° C. until use (less than 2 weeks). D300 test method panels were prepared fresh each day of use.
Accuracy was evaluated using established guidelines (16, 17). The MIC determined by the digital dispensing method was compared with the MIC determined by the broth microdilution reference method. Essential agreement, overall essential agreement, and categorical agreement were evaluated as described in the precision study.

S. aureus = assay: Automated microscopy cell counting at inhibitory and sub-inhibitory antibiotic concentrations; assay type: cell-based, Staphylococcus aureus; settings: 4 hours
Procedure: We performed preliminary automated imaging experiments on the Cell Observer microscope (Zeiss, Oberkochen, Germany) (37° C., 640x magnification, DIC). For these experiments, we utilized E. coli ATCC 25922 and S. aureus ATCC 25923 (FIG. 5), prototypical Gram-negative and Gram-positive pathogens. […] Therefore, we conducted automated imaging of the center of 20 wells using 20-50 z-slices of approximately 1 µm thickness. Each image represented approximately 43,500 µm^2. After collapsing z-slices into a single image per well, cells were readily detectable and distributed evenly throughout the field at a density of 10-30 cells per 1000 µm^2 in all wells evaluated.
As proof of concept and preliminary data for image analysis-based direct cell counting, we utilized a machine learning algorithm (Trainable Weka as contained within the Fiji implementation of ImageJ) (Schindelin et al., Nature Methods 9:676-682 (2012)). A training set of 200 manually segmented S. aureus cells was used to establish a model for cell detection. This model accepts raw image data as input (FIG. 7A), classifies each pixel of an image as containing “cells” or “background” resulting in a segmented image (FIG. 7B). The segmented image is then converted to a black and white binary format. A watershed algorithm refines the segmentation by defining borders where two or more cells are in contact with one another and prevents later erroneous single counting of these otherwise fused objects (FIG. 7C). The particle analysis function of ImageJ is then used to identify particles >0.25 µm^2 as individual bacteria (FIG. 7D). Identified bacteria are subsequently counted and their aggregate surface area calculated.
Using our cell counting model, we compared images of S. aureus grown on inhibitory and sub-inhibitory concentrations of antibiotics. […] At the same time point we observed that E. coli cells in wells with sub-inhibitory concentrations of antimicrobial formed large microcolonies, making analysis of individual cells difficult. In cases where individual cells could not be segmented, a machine learning algorithm similar to that outlined in (d) reliably quantifies relative cell coverage in each field.

[2] = test system: carbapenem-resistant Escherichia coli clinical isolates (blaKPC); assay: DDM (digital dispensing method) MIC testing of CRE isolates; assay type: cell-based; settings: for MIC: Escherichia coli, read-out: DDM modal MICs
Procedure: (§1) Bacterial strains: The 10 de-identified CRE clinical isolates used in the study were collected at our institution under Institutional Review Board-approved protocols and were sequenced through the carbapenem-resistant Enterobacteriaceae genome initiative at the Broad Institute (Cambridge, MA). All contained a Klebsiella pneumoniae carbapenemase (blaKPC) gene and were colony-purified, minimally passaged, and stored at -80° C. prior to use in this study.
(§2) After incubation, bacterial growth was quantified by measurement of OD600 using an Epoch (BioTek, Winooski, VT) or Spark 10 M microplate reader (Tecan, Morrisville, NC). An OD600 reading of 0.08 or greater (approximately twice typical background readings in wells containing broth alone) was considered indicative of bacterial growth (as also appreciable by visual assessment).
(§3) Precision and accuracy. […] Modal DDM MICs were calculated by taking the mode of all DDM MIC measurements obtained for a given antibiotic-strain combination, inclusive of initial MIC titrations and single-antibiotic rows/columns in synergy arrays (Table 5).

[3] = test system: carbapenem-resistant Klebsiella pneumoniae clinical isolates (blaKPC); assay: as above; assay type: cell-based; settings: for MIC: Klebsiella pneumoniae, read-out: DDM modal MICs
Procedure: as §1, §2, §3

E. coli ATCC 25922 [4] = settings: CLSI quality control range; cited from earlier work
P. mirabilis ATCC 702 = assay: MIC testing by broth microdilution and D300 digital dispensing (precision study); settings: Proteus mirabilis, ATCC702, read-out: reference MIC
E. coli ATCC 25922 [5] = assay: as above; settings: Escherichia coli, ATCC25922, read-out: reference MIC
E. coli ATCC 25922 [6] = assay: Microscopy-based AST (MAST): cell morphology at the MIC
[7] = in vivo; cited from earlier work
[8] = test system: Klebsiella pneumoniae strains expressing extended spectrum β-lactamases; settings: cited from earlier work
[9] = test system: Klebsiella pneumoniae strains expressing extended spectrum β-lactamases; settings: cited from earlier work; remark: listed apart in the source

| Compound | Non-susceptible strains (%) [1] | Non-susceptible strains n [1] | MIC ([2]; BIDMC 6, ECO, KPC type 2) | MIC ([2]; BIDMC 9, ECO, KPC type 2) | MIC ([2]; BIDMC 15, ECO, KPC type 2) | MIC ([2]; BIDMC 17A, ECO, KPC type 2) | MIC ([2]; BIDMC 20A, ECO, KPC type 3) | MIC ([3]; BIDMC 10, KPN, KPC type 3) | MIC ([3]; BIDMC 12A, KPN, KPC type 3) | MIC ([3]; BIDMC 4, KPN, KPC type 3) | MIC ([3]; BIDMC 5, KPN, KPC type 3) | MIC ([3]; BIDMC 18A, KPN, KPC type 2) | further results |
| --- | --- | --- | --- | --- | --- | --- | --- | --- | --- | --- | --- | --- | --- |
| CC1(C)S[C@@H]2[C@H](NC(=O)[C@H](N)c3ccccc3)C(=O)N2[C@H]1C(=O)O [Ampicillin (AMP), Ampicillin] | 81.3% | 65 | – | – | – | – | – | – | – | – | – | – | area occupied by cells (S. aureus; 0.5 × the MIC): 555 µm^2; cells detected (S. aureus; 0.5 × the MIC): 242 cells; reduction of cell numbers at the MIC vs 0.5 × the MIC (S. aureus): 5 fold; area occupied by cells (S. aureus; at the MIC): 47 µm^2; cells detected (S. aureus; at the MIC): 51 cells |
| O=C(N[C@H](CO)[C@H](O)c1ccc([N+](=O)[O-])cc1)C(Cl)Cl [CHL, chloramphenicol] | – | – | 8 µg/mL | 8 µg/mL | 8 µg/mL | 8 µg/mL | 16 µg/mL | > 64 µg/mL | 64 µg/mL | – | – | – | – |
| Cc1nnc(SCC2=C(C(=O)O)N3C(=O)[C@@H](NC(=O)Cn4cnnn4)[C@H]3SC2)s1 [Cefazolin (CFZ), Cefazolin] | – | – | – | – | – | – | – | – | – | – | – | – | quality control range (MIC) (E. coli ATCC 25922 [4]): 1 to 4 µg/mL; MIC (P. mirabilis ATCC 702): 4 µg/mL (≈ 8.8 µM); MIC (E. coli ATCC 25922 [5]): 2 µg/mL (≈ 4.4 µM) |
| O=C(O)c1cn(C2CC2)c2cc(N3CCNCC3)c(F)cc2c1=O [Ciprofloxacin (CIP), Ciprofloxacin] | – | – | – | – | – | – | – | – | – | – | – | – | cell morphology at the MIC (E. coli ATCC 25922 [6]; MAST, 2-hour incubation): elongated cells that failed to divide |
| C[C@@H]1O[C@@H]1P(=O)(O)O [FOF, fosfomycin] | – | – | 0.5 µg/mL | 0.5 µg/mL | 0.5 µg/mL | 0.5 µg/mL | 1 µg/mL | 64 µg/mL | 8 µg/mL | 128 µg/mL | 8 µg/mL | 4 µg/mL | – |
| C[C@H]1COc2c(N3CCN(C)CC3)c(F)cc3c(=O)c(C(=O)O)cn1c23 [LVX, levofloxacin] | – | – | 16 µg/mL | 16 µg/mL | 32 µg/mL | 16 µg/mL | 32 µg/mL | 16 µg/mL | 32 µg/mL | 128 µg/mL | > 64 µg/mL | 64 µg/mL | – |
| CN(C)c1ccc(O)c2c1C[C@H]1C[C@H]3[C@H](N(C)C)C(O)=C(C(N)=O)C(=O)[C@@]3(O)C(O)=C1C2=O [MIN, minocycline] | – | – | 1 µg/mL | 1 µg/mL | 1 µg/mL | 1 µg/mL | 4 µg/mL | 4 µg/mL | 4 µg/mL | 8 µg/mL | 16 µg/mL | 2 µg/mL | serum concentrations [7]: higher serum concentrations than tigecycline; side effects [7]: generally favorable side-effect profile |
| C[C@@H](O)[C@H]1C(=O)N2C(C(=O)O)=C(S[C@@H]3CN[C@H](C(=O)N(C)C)C3)[C@H](C)[C@H]12 [Meropenem (MEM), Meropenem] | 17.5% | 14 | 2 µg/mL | 4 µg/mL | 4 µg/mL | 2 µg/mL | 1 µg/mL | 4 µg/mL | 8 µg/mL | 32 µg/mL | 8 µg/mL | 32 µg/mL | MIC ([1]; read-out: modal MIC): 0.03 µg/mL (≈ 0.0782 µM); in vitro inoculum effect [8]: insignificant inoculum effect; survival of infected mice after treatment ([9]; high dose inoculum): survived; survival of infected mice after treatment ([9]; low bacterial inoculum): survived; cell morphology at the MIC (E. coli ATCC 25922 [6]; E. coli after 2 hours, FIG. 13): swelling; cell morphology at the MIC (E. coli ATCC 25922 [6]; MAST, 2-hour incubation): rounded sphereoplasts |
| CO[C@H]1/C=C/O[C@@]2(C)Oc3c(C)c(O)c4c(O)c(c(/C=N/N5CCN(C)CC5)c(O)c4c3C2=O)NC(=O)/C(C)=C\C=C\[C@H](C)[C@H](O)[C@@H](C)[C@@H](O)[C@@H](C)[C@H](OC(C)=O)[C@@H]1C [RIF, rifampin] | – | – | 16 µg/mL | 16 µg/mL | 32 µg/mL | 32 µg/mL | 16 µg/mL | 32 µg/mL | 32 µg/mL | 32 µg/mL | 32 µg/mL | 16 µg/mL | – |
| CN(C)[C@@H]1C(O)=C(C(N)=O)C(=O)[C@@]2(O)C(O)=C3C(=O)c4c(O)cccc4[C@@](C)(O)[C@H]3C[C@@H]12 [Tetracycline (TET), Tetracycline] | 42.5% | 34 | – | – | – | – | – | – | – | – | – | – | – |
| CN(C)c1cc(NC(=O)CNC(C)(C)C)c(O)c2c1C[C@H]1C[C@H]3[C@H](N(C)C)C(O)=C(C(N)=O)C(=O)[C@@]3(O)C(O)=C1C2=O [tigecycline] | – | – | – | – | – | – | – | – | – | – | – | – | side effects [7]: significant rates of nausea and vomiting; urinary excretion [7]: limited urinary excretion |
| Gentamicin [Gentamicin (GEN)] | 31.3% | 25 | – | – | – | – | – | – | – | – | – | – | DDM modal MICs ([2]; BIDMC 6, ECO, KPC type 2): >32 mg/L; DDM modal MICs ([2]; BIDMC 9, ECO, KPC type 2): >32 mg/L; DDM modal MICs ([2]; BIDMC 15, ECO, KPC type 2): 64 mg/L; DDM modal MICs ([2]; BIDMC 17A, ECO, KPC type 2): >32 mg/L; DDM modal MICs ([2]; BIDMC 20A, ECO, KPC type 3): 0.5 mg/L; DDM modal MICs ([3]; BIDMC 4, KPN, KPC type 3): 32 mg/L; DDM modal MICs ([3]; BIDMC 5, KPN, KPC type 3): 32 mg/L; DDM modal MICs ([3]; BIDMC 10, KPN, KPC type 3): 32 mg/L; DDM modal MICs ([3]; BIDMC 12A, KPN, KPC type 3): 1 mg/L; DDM modal MICs ([3]; BIDMC 18A, KPN, KPC type 2): 64 mg/L; cell morphology at the MIC (E. coli ATCC 25922 [6]; MAST, 2-hour incubation): blocked cell growth, but did not appreciably alter morphology |

Reference: patent US20230304064A1, “AUTOMATED, DIGITAL DISPENSING PLATFORM FOR MICRODILUTION ANTIMICROBIAL SUSCEPTIBILITY TESTING” (priority 2016, published 2023)
